Here are results for 41 molecules from patent USRE37556E1, “Superoxide radical inhibitor” (Otsuka Pharmaceutical Co., Ltd., priority 1990, dated 2002).

In the test the test system is human neutrophilic leukocytes. Briefly: Inhibition of superoxide radical (O2-) generation in FMLP-stimulated human neutrophilic leukocytes (ferricytochrome C method). In kind it is cell-based. The text has this:
(1) Activity for inhibiting the generation of superoxide radical (O2^−) in human neutrophilic leukocytes
That is, a whole blood obtained from a healthy adult and treated by anticoagulation method was subjected to a dextranhypotonic treatment to obtain leukocyte cells. The leukocyte cells were then subjected to a density gradient ultracentrifugation by Ficoll-Paque to obtain a neutrophilic leukocyte fraction.
O2^− generation was examined by the ferricytochrome C method in accordance with the method of B. N. Cronstein et al. [Journal of Experimental Medicine, vol. […] Each test compound was dissolved in dimethyl sulfoxide (DMSO); the solution was added to neutrophilic leukocytes before the addition of FMLP; then, the neutrophilic leukocytes were pre-incubated at 37° C.

Where [1] appears, read: Homo sapiens, Leukocyte, pH 7.4, Table 15, O2- generation, 3x10^-7 M FMLP, cytochalasin B, 37° C., pH 7.4.
Setting [2] is: Table 15, O2- generation, 3x10^-7 M FMLP, cytochalasin B, 37° C., pH 7.4.
Setting [3] is: Homo sapiens, Leukocyte, Table 16, comparative test present compounds vs prior art compounds, NE = not effective.

Structures are written as SMILES. pIC50: −log10 of the molar value. Where a name gives a salt, the structure may show the parent alone.

With `CCOc1ccc(-c2nc(-c3ccc(C(=O)OC)o3)cs2)cc1OCC` [compound 121, 2-(3,4-Diethoxyphenyl)-4-(2-methoxycarbonyl-5-furyl)thiazole], the pIC50 – broadly, the IC50 on a negative log10 scale, so that one unit is a factor of ten – under setting [1] is 7.42.

On to `CCCCOc1ccc(-c2csc(-c3ccc(OCC)c(OCC)c3)n2)cc1C(=O)O` [compound 137, 2-(3,4-Diethoxyphenyl)-4-(3-carboxy-4-n-butoxyphenyl)thiazole], for which, under setting [1], the pIC50 is 6.96.

Consider `CCOc1ccc(-c2nc(-c3ccc(N)cc3)cs2)cc1OCC` [compound 72, 4-(4-Aminophenyl)-2-(3,4-diethoxyphenyl)thiazole hydrochloride], for which the pIC50 under setting [1] was 6.70.

`CCOc1ccc(-c2nc(-c3ccc(C(=O)O)cn3)cs2)cc1OCC` [compound 143, 2-(3,4-Diethoxyphenyl)-4-(3-carboxy-6-pyridyl)-thiazole] had a pIC50 under setting [1] of 6.57.

Consider `CCOc1ccc(-c2nc(-c3cc(OC(C)=O)cc(OC(C)=O)c3)cs2)cc1OCC` [compound 79, 4-(3,5-Diacetyloxyphenyl)-2-(3,4-diethoxyphenyl) thiazole], for which the negative logarithm of the IC50 (pIC50) under setting [1] was 8.89.

Under setting [1], `CCOc1ccc(-c2nc(-c3cc4c(c(C(=O)O)c3)OC(C)(C)C4)cs2)cc1OCC` [compound 139, 2-(3,4-Diethoxyphenyl)-4-(2,2-dimethyl-7-carboxy-2,3-dihydrobenzofuran-5-yl)thiazole] had a pIC50 of 7.00.

`CCOc1ccc(-c2nc(-c3cncc(C(=O)O)c3)cs2)cc1OCC` [compound 135, 2-(3,4-Diethoxyphenyl)-4-(3-carboxy-5-pyridyl)-thiazole hydrochloride]: under setting [1], the pIC50 is 7.46.

As to `CCOc1ccc(-c2nc(-c3ccc(Cl)cc3)cs2)cc1OCC` [compound 75, 4-(4-Chlorophenyl)-2-(3,4-diethoxyphenyl)thiazole], the negative logarithm of the IC50 (pIC50) under setting [1] was 6.22.

Molecule `CCOc1ccc(-c2nc(-c3ccc(O)c(C(=O)O)c3)c(C)s2)cc1OCC` [compound 99, 4-(3-Carboxy-4-hydroxyphenyl)-2-(3,4-diethoxyphenyl)-5-methylthiazole] showed a pIC50 under setting [1] of 6.14.

`CCOc1ccc(-c2nc(-c3ccc(C#N)cc3)cs2)cc1OCC` [compound 67, 4-(4-Cyanophenyl)-2-(3,4-diethoxyphenyl)thiazole]: under setting [1], the pIC50 is 7.15.

Under setting [1], `CCOc1ccc(-c2nc(-c3ccc(C(=N)N)cc3)cs2)cc1OCC` [compound 69, 4-(4-Amidinophenyl)-2-(3,4-diethoxyphenyl)thiazole hydrochloride] had a pIC50 of 7.00.

`CCOc1ccc(C2(c3ccc(OCC)c(OCC)c3)NC(c3ccc(OC(C)=O)c(C(=O)O)c3)=CS2)cc1OCC` [compound 97, 4-(3-Carboxy-4-acetyloxyphenyl)-2-(3,4-diethoxyphenyl)-2-(3,4-diethoxyphenyl)thiazole]: the pIC50 under setting [1] was 7.00.

For `CCOc1ccc(-c2nc(-c3ccc(C(=O)O)nc3)cs2)cc1OCC` [compound 144, 2-(3,4-Diethoxyphenyl)-4-(2-carboxy-5-pyridyl)-thiazole], under setting [1], the pIC50 is 7.46.

For `CCOc1ccc(-c2nc(-c3cc(N)c(O)c(C(=O)OC)c3)cs2)cc1OCC` [compound 89, 4-(3-Amino-4-hydroxy-5-methoxycarbonylphenyl)-2-(3,4-diethoxyphenyl)thiazole], under setting [1], the pIC50 was 8.15. Compared with the last molecule, the pIC50 is 0.69 log units higher.

`CCOc1ccc(-c2nc(-c3cc(CC)c(O)c(C(=O)O)c3)cs2)cc1OCC` [compound 126, 2-(3,4-Diethoxyphenyl)-4-(3-carboxy-4-hydroxy-5-ethylphenyl)thiazole]: the pIC50 under setting [1] is 7.85.

`CC=Cc1cc(-c2csc(-c3ccc(OCC)c(OCC)c3)n2)cc(C(=O)O)c1O` [compound 140, 2-(3,4-Diethoxyphenyl)-4-[3-carboxy-4-hydroxy-5-(1-propenyl)phenyl]thiazole] had a pIC50 under setting [1] of 8.33.

As for `CC(=O)Oc1ccc(-c2csc(-c3cccnc3)n2)cc1OC(C)=O` [compound 76, 4-(3,4-Diacetyloxyphenyl)-2-(3-pyridyl)thiazole], the pIC50 under setting [1] was 6.22.

`CCOc1ccc(-c2nc(-c3ccc(O[C@@H]4O[C@H](COC(C)=O)[C@@H](OC(C)=O)[C@H](OC(C)=O)[C@H]4OC(C)=O)cc3)cs2)cc1OCC` [compound 78, 2-(3,4-Diethoxyphenyl)-4-[4-(2,3,4,6-tetra-0-acetyl-β-D-glucopyranosyloxy)phenyl]thiazole] had a pIC50 under setting [2] of 6.00.

`CCN1CCN(c2cc(-c3csc(-c4ccc(O)c(O)c4)n3)ccc2OC)CC1` [compound 74, 4-[4-Methoxy-3-(4-ethyl-1-piperazinyl)phenyl]-2-(3,4-dihydroxyphenyl)thiazole trihydrochloride] showed a pIC50 under setting [1] of 6.52.

As for `COc1ccc(-c2nc(-c3ccc(OS(=O)(=O)O)cc3)cs2)cc1OC` [compound 63, 4-(4-Hydroxysulfonyloxyphenyl)-2-(3,4-dimethoxyphenyl)thiazole], under setting [1], the pIC50 is 7.52. This pIC50 lies 1.00 log units higher than the previous one.

In turn, `C=CCc1cc(-c2csc(-c3ccc(OCC)c(OCC)c3)n2)cc(C(=O)O)c1O` [compound 83, 4-(3-Carboxy-4-hydroxy-5-allylphenyl)-2-(3,4-diethoxyphenyl)thiazole] showed a pIC50 under setting [1] of 7.40.

`CCOc1ccc(-c2nc(-c3cc(C(=O)O)c4oc(C)cc4c3)cs2)cc1OCC` [compound 130, 2-(3,4-Diethoxyphenyl)-4-(2-methyl-7-carboxy-5-benzofuryl)thiazole]: the pIC50 under setting [1] is 6.62.

In the case of `CCOc1ccc(-c2nc(-c3cccc(C(=O)N(C)C)n3)cs2)cc1OCC` [compound 123, 2-(3,4-Diethoxyphenyl)-4-(2-dimethylaminocarbonyl-6-pyridyl)thiazole], under setting [1], the pIC50 was 6.42.

Consider `CCOc1ccc(-c2nc(-c3cccc(C(=O)N4CCN(C)CC4)n3)cs2)cc1OCC` [compound 128], for which the pIC50 under setting [2] was 6.24.

Under setting [1], `COc1ccc(-c2nc(-c3ccccn3)cs2)cc1OC` [compound 60, 2-(3,4-Dimethoxyphenyl)-4-(2-pyridyl)thiazole hydrochloride] gave a pIC50 of 7.30.

As for `CCOc1ccc(-c2nc(-c3cccc(C(=O)O)n3)cs2)cc1OCC` [compound 115, 4-(6-Carboxy-2-pyridyl)-2-(3,4-diethoxyphenyl)-thiazole], the pIC50 under setting [1] was 7.10.

The molecule `COc1ccc(-c2nc(-c3cc(N)cc(N)c3)cs2)cc1OC` [compound 71, 4-(3,5-Diaminophenyl)-2-(3,4-dimethoxyphenyl) thiazole dihydrochloride] showed a pIC50 under setting [1] of 6.70.

`CCOc1ccc(-c2nc(-c3nc(C(=O)O)cs3)cs2)cc1OCC` [compound 132, 2-(3,4-Diethoxyphenyl)-4-(4-carboxy-2-thiazolyl)-thiazole] had a pIC50 under setting [1] of 7.30.

In the case of `CCCCCCCCCOC(=O)c1cc(-c2csc(-c3ccc(OCC)c(OCC)c3)n2)ccc1O` [compound 120, 2-(3,4-Diethoxyphenyl)-4-(4-hydroxy-3-n-nonyloxy-carbonylphenyl)thiazole], the pIC50 under setting [1] was 6.31.

With `CCOc1cc(-c2nc(-c3cc(C(=O)O)ccc3O)cs2)ccc1OC` [compound 104, 4-(3-Carboxy-6-hydroxyphenyl)-2-(3-ethoxy-4-methoxy-phenyl)thiazole], the pIC50 under setting [3] was 7.47 and the negative-log IC50 (pIC50) under setting [1] was 7.47.

Turning to `CCOc1ccc(-c2nc(-c3ccc(O)c(C(=O)OC)c3)cs2)cc1OCC` [compound 80, 4-(4-Hydroxy-3-methoxycarbonylphenyl)-2-(3,4-diethoxyphenyl)thiazole], the pIC50 under setting [1] is 8.00.

In the case of `CCOc1ccc(-c2nc(-c3ccc(OCC)c(C(=O)O)c3)cs2)cc1OCC` [compound 134, 2-(3,4-Diethoxyphenyl)-4-(4-ethoxy-3-carboxyphenyl)thiazole], under setting [1], the pIC50 is 6.89.

For the molecule `CCOc1ccc(-c2nc(-c3ccc(O)cc3)cs2)cc1OCC` [compound 64, 4-(4-Hydroxyphenyl)-2-(3,4-diethoxyphenyl)thiazole], the pIC50 under setting [1] is 7.40.

Take `CCOc1ccc(-c2nc(-c3cc(C(=O)OC)cc(N)c3O)cs2)cc1OCC` [compound 102, 4-(3-Methoxycarbonyl-5-amino-6-hydroxyphenyl)-2-(3,4-diethoxyphenyl)thiazole]: the pIC50 under setting [1] was 7.16.

In turn, `CCOc1ccc(-c2nc(C(O)c3ccc(OC)c(OC)c3)cs2)cc1OCC` (stereo not shown) [compound 73, 4-[1-Hydroxy-1-(3,4-dimethoxyphenyl)methyl]-2-(3,4-diethoxyphenyl)thiazole] showed a pIC50 under setting [1] of 6.70.

Consider `C=Cc1cc(-c2csc(-c3ccc(OCC)c(OCC)c3)n2)cc(C(=O)O)c1O` [compound 147, 2-(3,4-Diethoxyphenyl)-4-(3-carboxy-4-hydroxy-5-vinylphenyl)thiazole], for which the pIC50 under setting [1] was 8.00.

The molecule `CCOc1ccc(-c2nc(-c3ccc(O)c(N)c3)cs2)cc1OCC` [compound 66, 4-(4-Hydroxy-3-aminophenyl)-2-(3,4-diethoxyphenyl)thiazole dihydrochloride] showed a negative logarithm of the IC50 (pIC50) under setting [1] of 7.22.

In turn, `COc1ccc(-c2nc(-c3ccc(O)c(C(=O)O)c3)cs2)cc1OC` [compound 105, 4-(3-Carboxy-4-hydroxyphenyl)-2-(3,4-dimethoxyphenyl)thiazole, reference compound] gave a pIC50 under setting [3] of 6.00.

Molecule `CCOc1ccc(-c2nc(-c3ccc(OCC(=O)OC)c(C(=O)OC)c3)cs2)cc1OCC` [compound 81, 4-(4-Methoxycarbonylmethoxy-3-methoxycarbonylphenyl)-2-(3,4-diethoxyphenyl)thiazole] showed a pIC50 under setting [1] of 7.59.

In the case of `CCOc1ccc(-c2nc(-c3cccc(C(=O)O)c3)cs2)cc1OCC` [compound 87, 4-(3-Carboxyphenyl)-2-(3,4-diethoxyphenyl)thiazole], the negative logarithm of the IC50 (pIC50) reads like this: under setting [3], 8.32; under setting [1], 8.32.

`CCOc1ccc(-c2nc(-c3cc(C=O)c(O)c(C(=O)O)c3)cs2)cc1OCC` [compound 142, 2-(3,4-Diethoxyphenyl)-4-(3-carboxy-4-hydroxy-5-formylphenyl)thiazole] gave a pIC50 under setting [1] of 6.92.
